Measurements published in US12570657B2, “Mesylate salts of heterocyclic cytokinins, compositions containing these derivatives and use thereof” (UNIVERZITA PALACKEHO V OLOMOUCI, priority 2020, dated 2026).
≈ marks a conversion by molar mass, not a printed value. Where two headings read alike, the source gives them in different places.

How the values were obtained:
[1] = Solubility in organic solvents (progressive solvent addition); format: physicochemical; conditions: organic solvent or mixture, thermodynamic from solid
Description: Solubility in organic solvents was measured using the following protocol. Approximately 25 mg portions of meta-topolin and crystalline meta-topolin mesylate salt were placed in 48 different vials, separately. 5 volume aliquots of each solvent were added progressively (repeatedly) to the vials. After each addition, the mixture was checked for dissolution and if no dissolution was visible, the procedure was continued until dissolution was observed, or until 50 volumes have been added.

[2] = water; reported value; cited from earlier work
[3] = Disproportionation stability study (water slurry, XRPD); format: physicochemical; conditions: slurried in distilled water ca. 48 hours
Description: A 50 mg sample of crystalline meta-topolin mesylate crystalline salt was slurried in 250 μL distilled water for ca. 48 hours and then checked by XRPD for disproportionation.

[4] = Storage stability study of solid crystalline salt (XRPD, colour); format: physicochemical; conditions: sealed tube, 25° C., 60 days
Description: 50 mg sample of crystalline meta-topolin mesylate crystalline salt was placed in an eppendorf tube and sealed. The sample was kept at 25° C. for 60 days. No color change was noted during the storage period. XRPD of samples were taken after 60 days to investigate any solid form change.

[5] = DMF, read-out: Solubility in DMF
[6] = DMSO, read-out: Solubility in DMSO
[7] = acetone, read-out: Solubility in aceton
[8] = acetonitrile, read-out: Solubility in acetonitrile
[9] = ethanol, read-out: Solubility in ethanol
[10] = heptane, read-out: Solubility in heptane
[11] = methanol, read-out: Solubility in methanol

Structure (SMILES)	solubility [1, 5] [µg/mL]	solubility [1, 6] [µg/mL]	solubility [1, 7] [µg/mL]	solubility [1, 8] [µg/mL]	solubility [1, 9] [µg/mL]	solubility [1, 10] [µg/mL]	solubility [1, 11] [µg/mL]	aqueous solubility (reported) [2] [µg/mL]	Disproportionation (XRPD) [3]	Storage stability (XRPD pattern and colour) [4]
Oc1cccc(CNc2ncnc3nc[nH]c23)c1 [meta-topolin (mT), 6-(3-hydroxybenzylamino)purine]	6000 (≈ 24.9 mM)	24000 (≈ 99.5 mM)	400 (≈ 1.66 mM)	< 250	5000 (≈ 20.7 mM)	< 100	5000 (≈ 20.7 mM)	< 250		
CS(=O)(=O)O.Oc1cccc(CNc2ncnc3nc[nH]c23)c1 [mT mesylate, 6-(3-hydroxybenzylamino)purine mesylate]	6000	22000	400	< 250	400	< 100	700		No signs of disproportionation were observed	did not reveal any changes in XRPD spektra, or change in color
